According to article PMC11919836, “Multi-omics analysis reveals Jianpi formula-derived bioactive peptide-YG-22 potentially inhibited colorectal cancer via regulating epigenetic reprogram and signal pathway regulation” (Frontiers in Genetics, 2025):
Where no end group is shown, it is not given here.

Legend:
[1] = system: HCT116 cells; experiment: CCK-8 cell viability assay of candidate peptides; type: cell-based; details: peptide 5 mg/mL, 24 h, CCK-8, absorbance 450 nm, mean ± SEM n = 3, P < 0.01 vs control
Source text: (§1) After comparing the differential expressed peptides between two treatment groups: chemotherapy alone (n = 5) and chemotherapy combined with Jianpi formula (n = 5). Six candidate peptides were finally screened out, including YP-16 (YGRKKRRQRRR-GPSVP), YP-17 (YGRKKRRQRRR-OLTSGP), YG-22 (YGRKKRRQRRR-DGSPGKDGVRG), YM-22 (YGRKKRRQRRR-LGEAFDGARDM), YP-23 (YGRKKRRQRRR-MEPLGRQLTSGP), and YD-28 (YGRKKRRQRRR-EDPQGDAAOKTDTSHHD). And then, the candidate peptides were synthesized based on their amino acid sequences to evaluate their effects on HCT116 cell viability. Briefly, a total of 1,500 cells per well were seeded in 96-well plates and incubated overnight in a culture medium under appropriate conditions. Following incubation, the cells were treated with indicated peptides (5 mg/mL) at the desired concentrations for 24 h. Cell viability was then assessed using the CCK-8 assay (Dojindo, Japan), following the manufacturer’s instructions. After adding the CCK-8 reagent and incubating for the recommended time, absorbance was measured at 450 nm using a spectrophotometric plate reader (Bio-Tek, United States). Furthermore, HCT116 cells were treated with varying concentrations of YG-22 (0, 2, 4, 6, 8, and 10 mg/mL) for either 24 or 48 h to determine the IC50 values. After the incubation with YG-22 (IC50 concentration) for 48 h, the HCT116 cells were collected for subsequent analyses, including RNA sequencing (RNA-seq) to evaluate gene expression profiles, liquid chromatography-mass spectrometry (LC-MS) for metabolite analysis, assay for transposase-accessible chromatin using sequencing (ATAC-seq) to assess chromatin accessibility, and chromatin immunoprecipitation sequencing (ChIP-seq) to study the H3K4Me3 profiling and NF-κB protein-DNA interactions.
There were at least three biological replicates, excluding ATAC-seq and ChIP-seq analysis, for each group. Cell viability evaluation data were reported as means ± SEM. Student’s t-test (two-tailed) or one-way ANOVA with Bonferroni’s multiple comparison test were used. P-values of <0.05, or 0.01, or 0.001 were deemed significant.

[2] = system: HCT116 cells; experiment: Transcriptome analysis (RNA-seq) of YG-22-treated cells; type: cell-based; details: HCT116, YG-22 1.769 mg/mL, 48 h, treated vs control
Source text: After comparing the differential expressed peptides between two treatment groups: chemotherapy alone (n = 5) and chemotherapy combined with Jianpi formula (n = 5). Six candidate peptides were finally screened out, including YP-16 (YGRKKRRQRRR-GPSVP), YP-17 (YGRKKRRQRRR-OLTSGP), YG-22 (YGRKKRRQRRR-DGSPGKDGVRG), YM-22 (YGRKKRRQRRR-LGEAFDGARDM), YP-23 (YGRKKRRQRRR-MEPLGRQLTSGP), and YD-28 (YGRKKRRQRRR-EDPQGDAAOKTDTSHHD). And then, the candidate peptides were synthesized based on their amino acid sequences to evaluate their effects on HCT116 cell viability. […] Cell viability was then assessed using the CCK-8 assay (Dojindo, Japan), following the manufacturer’s instructions. After adding the CCK-8 reagent and incubating for the recommended time, absorbance was measured at 450 nm using a spectrophotometric plate reader (Bio-Tek, United States). […]
For transcriptome analysis, treated and control HCT116 cells (1 × 10^5) are collected, and total RNA is extracted using RNA isolation kit (Qiagen, Germany) following the manufacturer’s instructions. Total RNA samples were prepared with an initial concentration of at least 20 ng/μL and a total quantity of at least 2 μg, ensuring an A260/A280 ratio between 1.9 and 2.1 for quality control. mRNA was isolated using oligo-dT beads to capture polyA-tailed transcripts, followed by thermal fragmentation into 200–300 bp fragments. […]

[3] = system: H3K4Me3 in HCT116 cells; experiment: ChIP-seq H3K4Me3 profiling of YG-22-treated cells; type: cell-based, human; details: 48 h
Source text: as §1
ChIP-seq analysis for H3K4Me3 profiling and NF-κB protein-DNA interactions was conducted using a combination of chromatin immunoprecipitation and high-throughput sequencing. HCT116 cells (5 × 10^6) were fixed with 1% formaldehyde to crosslink proteins and DNA, followed by quenching with glycine and lysis to isolate chromatin. The chromatin was sonicated to fragment DNA, and immunoprecipitation was performed using specific antibodies for H3K4Me3 and NF-κB, coupled with Protein A + G magnetic beads. The immunoprecipitated complexes were reverse crosslinked, and DNA was purified. High-throughput sequencing libraries were prepared through end repair, A-tailing, adapter ligation, and PCR amplification, targeting fragment sizes of 100–300 bp. Sequencing was performed on the Illumina NovaSeq 6,000 platform.
Bioinformatics analysis included quality control using FastQC, adapter trimming with fastp, and alignment of clean reads to the human reference genome (hg38) using Bowtie2. Peak calling was conducted with MACS2 to identify binding sites and histone modifications, followed by annotation using ChIPseeker. Motif analysis, using MEME and HOMER, identified enriched motifs within peak regions, particularly for NF-κB binding. Functional enrichment analysis was carried out with KEGG pathways to link identified peaks to pathways. Visualization tools, such as heatmaps and Circos plots, were used to highlight binding site distribution and signal enrichment across the genome, providing insights into chromatin modifications and transcription factor interactions under experimental conditions.

[4] = system: HCT116 cells; experiment: Chromatin accessibility analysis (ATAC-seq) of YG-22-treated cells; type: cell-based; details: HCT116, YG-22 1.769 mg/mL, 48 h
Source text: as §1, with “After the incubation with YG-22 (IC50 concentration) for 48 h, the HCT116 cells were collected for subsequent analyses, including RNA sequencing (RNA-seq) to evaluate gene expression profiles, liquid chromatography-mass spectrometry (LC-MS) for metabolite analysis, assay for transposase-accessible chromatin using sequencing (ATAC-seq) to assess chromatin accessibility, and chromatin immunoprecipitation sequencing (ChIP-seq) to study the H3K4Me3 profiling and NF-κB protein-DNA interactions.” left out

[5] = system: NF-κB in HCT116 cells; experiment: ChIP-seq of NF-κB binding in YG-22-treated cells; type: cell-based, human
Source text: as §1, with “interactions. […]” for “interactions.”
Bioinformatics analysis included quality control using FastQC, adapter trimming with fastp, and alignment of clean reads to the human reference genome (hg38) using Bowtie2. […]

[6] = system: HCT116 cells; experiment: Metabolomics analysis (LC-MS) of YG-22-treated cells; type: cell-based; details: HCT116, YG-22 1.769 mg/mL, 48 h
Source text: as §1
For metabolomics analysis, treated and control HCT116 cells (1 × 10^5) are collected, washed with cold PBS, and lysed using 80% methanol to extract metabolites. The lysates are centrifuged at 12,000–15,000 × g at 4°C, and the supernatants are stored at −80°C. Metabolite profiling is performed using liquid chromatography-mass spectrometry (LC-MS) with a reverse-phase LC column and gradient elution, followed by high-resolution mass spectrometry in positive and/or negative ion modes. Data preprocessing involves peak detection, alignment, normalization, and filtering using software such as XCMS or Compound Discoverer. Metabolites are identified by matching m/z values, retention times, and fragmentation patterns to databases like HMDB or METLIN, with MS/MS used for structural confirmation. […] The results are visualized with heatmaps, volcano plots, and pathway diagrams, providing insights into metabolic changes induced by treatment.

[7] = HCT116, YG-22 1.769 mg/mL, ChIP-seq

Substance: YGRKKRRQRRR-EDPQGDAAOKTDTSHHD [YD-28]
- effect on HCT116 cell viability [1]: notably reduced cell viability

Substance: YGRKKRRQRRR-LGEAFDGARDM (YGRKKRRQRRRLGEAFDGARDM) [YM-22]
- effect on HCT116 cell viability [1]: notably reduced cell viability

Substance: YGRKKRRQRRR-OLTSGP [YP-17]
- effect on HCT116 cell viability [1]: notably reduced cell viability

Substance: YGRKKRRQRRRDGSPGKDGVRG [YG-22]
- effect on HCT116 cell viability [1]: notably reduced cell viability
- downregulated genes (DEGs) [2]: 252
- upregulated genes (DEGs) [2]: 236
- downregulated differential H3K4me3 peaks [3, 7]: 385
- upregulated differential H3K4me3 peaks [3, 7]: 97
- intronic H3K4me3 peaks ([3]; HCT116, YG-22-treated, control 5.2%): 4.5%
- intergenic H3K4me3 peaks ([3]; HCT116, YG-22-treated, control 7.1%): 6.3%
- promoter-associated H3K4me3 peaks ([3]; HCT116, YG-22-treated, control 86.3%): 87.8%
- downregulated differential chromatin accessibility peaks [4]: 1,697
- upregulated differential chromatin accessibility peaks [4]: 78
- downregulated NF-κB peaks ([5]; HCT116, YG-22, 48 h, ChIP-seq): 36
- upregulated NF-κB peaks ([5]; HCT116, YG-22, 48 h, ChIP-seq): 26
- NF-κB peaks in distal intergenic regions ([5]; HCT116, YG-22-treated, 48 h, control 28.9%): 38.4%
- downregulated metabolites, negative ion (NEG) mode [6]: 127
- downregulated metabolites, positive ion (POS) mode [6]: 70
- upregulated metabolites, negative ion (NEG) mode [6]: 121
- upregulated metabolites, positive ion (POS) mode [6]: 69
